Experimental data published in patent US20050101657A1, “Androgen receptor antagonists” (Takeda Chemical Industries Ltd., priority 2001, published 2005).
Changes are numbered by the printed parent chain.

Columns and labels:
[1] = tested on: Human prostate cancer cells LNCaP-FGC; assay: Inhibition of prostate-specific antigen (PSA) production in prostate cancer cells; type: cell-based; settings: 72 h, testosterone 1 ng/ml, three days after addition, ELISA, read-out: IC50, PSA production in culture supernatant
Protocol: Human prostate cancer cells LNCaP-FGC were seeded in a 24-well plate at a concentration of 40,000 cells/ml/well or in a 96-well plate at a concentration of 5000 cells/100 μl/well. On the following day, testosterone (final concentration 1 ng/ml) and a compound (final concentration 0.01 to 10 μM) were added. Three days after the addition, the concentration of PSA in the supernatant of the culture solution was measured by ELISA, and IC50 was calculated.

[2] = target: T1, LNCaP type mutant androgen receptor (Homo sapiens, UniProt P10275, T878A); assay: AR-binding inhibition test (LNCaP type); settings: radio labeled Mibolerone 3 nM; 4° C., 3 hours; dextran/charcoal method
T1 sequence (P10275 1-920 T878A): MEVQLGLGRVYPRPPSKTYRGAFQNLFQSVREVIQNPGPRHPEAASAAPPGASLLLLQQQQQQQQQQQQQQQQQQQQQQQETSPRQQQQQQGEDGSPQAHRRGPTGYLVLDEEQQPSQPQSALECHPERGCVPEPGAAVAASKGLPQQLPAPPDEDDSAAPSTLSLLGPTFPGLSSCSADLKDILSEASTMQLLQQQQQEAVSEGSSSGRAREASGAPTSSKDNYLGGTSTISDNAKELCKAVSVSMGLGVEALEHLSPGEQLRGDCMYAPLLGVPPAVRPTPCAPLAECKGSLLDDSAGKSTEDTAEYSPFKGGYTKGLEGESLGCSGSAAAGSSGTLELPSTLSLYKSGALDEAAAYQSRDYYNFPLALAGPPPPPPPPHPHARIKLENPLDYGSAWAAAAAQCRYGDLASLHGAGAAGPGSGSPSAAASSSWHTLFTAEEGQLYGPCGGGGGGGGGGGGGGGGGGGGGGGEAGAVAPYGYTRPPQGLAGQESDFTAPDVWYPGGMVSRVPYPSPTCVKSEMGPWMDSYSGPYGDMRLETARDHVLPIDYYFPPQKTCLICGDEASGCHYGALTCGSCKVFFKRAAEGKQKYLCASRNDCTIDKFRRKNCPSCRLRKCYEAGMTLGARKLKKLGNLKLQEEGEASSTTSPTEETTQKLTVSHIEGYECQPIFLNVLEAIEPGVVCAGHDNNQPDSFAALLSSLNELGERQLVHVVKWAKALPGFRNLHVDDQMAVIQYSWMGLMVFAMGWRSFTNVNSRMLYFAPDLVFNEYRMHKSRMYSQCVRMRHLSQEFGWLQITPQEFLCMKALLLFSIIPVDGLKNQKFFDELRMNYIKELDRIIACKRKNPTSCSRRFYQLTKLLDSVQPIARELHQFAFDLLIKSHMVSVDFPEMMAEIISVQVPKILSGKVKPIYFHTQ
Protocol: (§1) A solution of wild type or LNCaP type mutant androgen receptor, radio labeled Mibolerone (final concentration 3 nM) and a compound (final concentration 0.001 to 10 μM) were mixed. The mixture was incubated at 4° C. for 3 hours, and by the dextran/charcoal method, B (Bound) and F (Free) Mibolerone were separated. The radioactivity of B was measured and IC50 was calculated.

[3] = target: T2, wild type androgen receptor (Homo sapiens, UniProt P10275); assay: AR-binding inhibition test (wild type); settings: radio labeled Mibolerone 3 nM; 4° C., 3 hours; dextran/charcoal method
T2 sequence (P10275 1-920): T1 sequence (P10275 1-920 T878A) with A878T
Protocol: as §1

mutation type AR (W741C) = target: T3, mutation type AR (W741C) (Homo sapiens, UniProt P10275, W742C); assay: AR transcription inhibition test (luciferase reporter); type: cell-based; settings: Cos-7 cells; test compound 1 μM; DHT 0.04 μM; 24 hours; luciferase activity; read-out: Inhibition rate (%) relative to the control
T3 construct: expressed in transfected cells; host or cells: Cos-7
T3 sequence (P10275 1-920 W742C): T1 sequence (P10275 1-920 T878A) with W742C, A878T
Protocol: Cos-7 cells were inoculated in a flask at 5,000,000 cells, and incubated in a culture solution (DMEM+10% Dextran Charcoal (DCC)-Fetal Bovine Serum (FBS) +2 mM glutamine) for 24 hours. A vector DNA in which a mutation type AR (W741C) gene was inserted and a vector DNA combined with luciferase gene downstream of the androgen responsive promoter were cotransfected by the liposome method. Two hours later, the culture medium was replaced and incubation was further carried out for 3 hours. DHT (Dihydrotestosterone) at a final concentration 0.04 μM and a test compound at a final concentration of 1 μM were added, and incubation was further carried out for 24 hours. By measuring luciferase activity, AR transcription inhibitory activity of the test compound was examined.

IC50 [1] [nM]	IC50 [2] [nM]	IC50 [3] [nM]	inhibition at 1 µM (mutation type AR (W741C)) [%]	Structure (SMILES)
823				CC(O)(CS(=O)(=O)c1ccc(F)cc1)C(=O)Nc1ccc(C#N)c(C(F)(F)F)c1 (stereo not shown) [Bicalutamide, bicalutamide, reference compound]
392	200	190	64.3	CCOC(=O)c1c(C)[nH]c(C)c1-c1ccc([N+](=O)[O-])cc1 [Example 1, Ethyl 2,5-dimethyl-4-(4-nitrophenyl)-1H-pyrrole-3-carboxylate]
87	7.5	7.8	20.1	CCOC(=O)c1c(-c2ccc([N+](=O)[O-])cc2)c(C)n(Cc2ccccc2)c1C [Example 4, Ethyl 1-benzyl-2,5-dimethyl-4-(4-nitrophenyl)-1H-pyrrole-3-carboxylate]
34	68	40	80.1	COC(=O)c1c(-c2ccc(C#N)cc2)c(C)n(Cc2ccc(C#N)cc2)c1C [Example 80, Methyl 1-(4-cyanobenzyl)-4-(4-cyanophenyl)-2,5-dimethyl-1H-pyrrole-3-carboxylate]
